From ChEMBL document CHEMBL1146757, “Silanediol peptidomimetics. Evaluation of four diastereomeric ACE inhibitors” (Bioorg Med Chem Lett, 2004)

These molecules were tested against T1, Angiotensin-converting enzyme (Oryctolagus cuniculus, UniProt P12822) (assay: Inhibitory activity of compound against angiotensin I converting enzyme was determined).
T1 sequence (P12822 whole entry): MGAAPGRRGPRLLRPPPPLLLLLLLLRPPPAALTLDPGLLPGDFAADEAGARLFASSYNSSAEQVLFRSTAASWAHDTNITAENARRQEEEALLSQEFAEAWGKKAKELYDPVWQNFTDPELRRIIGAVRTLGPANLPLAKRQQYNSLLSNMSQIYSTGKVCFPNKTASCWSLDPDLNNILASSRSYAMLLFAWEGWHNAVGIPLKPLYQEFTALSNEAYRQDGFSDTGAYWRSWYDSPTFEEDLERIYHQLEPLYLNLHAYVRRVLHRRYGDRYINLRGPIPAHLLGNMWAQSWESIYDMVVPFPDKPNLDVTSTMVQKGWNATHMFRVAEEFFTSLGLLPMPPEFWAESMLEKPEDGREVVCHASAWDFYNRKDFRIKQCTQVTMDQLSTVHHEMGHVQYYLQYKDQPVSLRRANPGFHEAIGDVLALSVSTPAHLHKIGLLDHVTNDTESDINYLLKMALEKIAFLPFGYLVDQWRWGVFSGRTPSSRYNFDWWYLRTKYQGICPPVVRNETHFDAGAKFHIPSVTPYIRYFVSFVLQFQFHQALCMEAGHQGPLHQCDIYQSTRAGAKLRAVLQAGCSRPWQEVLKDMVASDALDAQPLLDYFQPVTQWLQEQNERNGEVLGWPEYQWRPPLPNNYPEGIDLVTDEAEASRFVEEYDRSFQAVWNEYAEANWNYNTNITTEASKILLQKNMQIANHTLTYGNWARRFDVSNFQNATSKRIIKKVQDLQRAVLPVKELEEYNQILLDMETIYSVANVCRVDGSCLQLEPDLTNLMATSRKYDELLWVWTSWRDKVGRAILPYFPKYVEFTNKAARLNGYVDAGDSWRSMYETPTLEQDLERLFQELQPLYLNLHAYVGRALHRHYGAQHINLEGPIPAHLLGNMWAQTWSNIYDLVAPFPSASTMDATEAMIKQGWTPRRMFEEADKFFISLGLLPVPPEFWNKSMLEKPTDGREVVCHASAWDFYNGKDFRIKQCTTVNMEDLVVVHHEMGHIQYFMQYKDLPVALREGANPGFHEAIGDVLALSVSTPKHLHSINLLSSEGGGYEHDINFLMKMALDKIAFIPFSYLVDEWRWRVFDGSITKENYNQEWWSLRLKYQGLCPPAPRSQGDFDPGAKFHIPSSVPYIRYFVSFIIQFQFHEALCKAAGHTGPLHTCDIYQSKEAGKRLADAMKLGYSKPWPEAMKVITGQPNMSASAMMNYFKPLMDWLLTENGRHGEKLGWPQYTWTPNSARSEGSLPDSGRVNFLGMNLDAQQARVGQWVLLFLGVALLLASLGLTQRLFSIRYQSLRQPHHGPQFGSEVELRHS

| SMILES | IC50 [nM] |
| --- | --- |
| C[C@@H](C[Si](O)(O)[C@@H](Cc1ccccc1)NC(=O)c1ccccc1)C(=O)N1CCC[C@H]1C(=O)O | 72 |
| C[C@H](C[Si](O)(O)[C@@H](Cc1ccccc1)NC(=O)c1ccccc1)C(=O)N1CCC[C@H]1C(=O)O | 19 |
| CC(C)CC(NC(=O)c1ccccc1)[Si](O)(O)CC(C)C(=O)N1CCC[C@H]1C(=O)O (stereo not given in full) | 14 |
| C[C@@H](C[Si](O)(O)[C@H](Cc1ccccc1)NC(=O)c1ccccc1)C(=O)N1CCC[C@H]1C(=O)O | 207 |
| C[C@H](C[Si](O)(O)[C@H](Cc1ccccc1)NC(=O)c1ccccc1)C(=O)N1CCC[C@H]1C(=O)O | 3.8 |
